Test results: patent US12435061B2 (priority 2020, dated 2025)
In brackets after ≈: the same amount, converted by molar mass. Several values for one entry are separate records, joined by “and”; a condition that tells them apart may be missing. Identical values can stand only once.

How the values were obtained:
[1] = target: T1, hTRPV3 (Homo sapiens (Human), UniProt Q8NET8); experiment: FLIPR Assay (calcium flux, HEK293 cells stably expressing TRPV3); assay type: cell-based
Description: In Tables 3 and 4, Phase 1 refers to Phase 1 current for human (h) TRPV3 or rat (r) TRPV3, and Phase 2 refers to Phase 2 current for human (h) TRPV3 or rat (r) TRPV3. The hTRPV3 and rTRPV3 assays were performed as described herein. hERG refers to the inhibition the human ERG (hERG) channel. NaV1.5, refers to the pore forming aL-subunit of the voltage-dependent cardiac Na(+) channel and is an integral membrane protein involved in the initiation and conduction of action potentials. hTRPV3 HAMA IC50 refers to the IC50 of TRPV3 cells stably expressed in TRex-293 cells. Solubility Ringer refers to the compounds' solubility in Ringer's solution. LM T1/2 refers to liver microsome half-lives in either rat or human liver microsomes. FLIPR IC50 refers to the IC50 of the test compounds against recombinant hTRPV3 cells.
The cells were treated with IBSS and 20 mM HEPES adjusted to pH 7.4 in the presence of the fluorescent calcium indicator e.g. Fluo-4AM (5 uM) and the plates were incubated at 37° C. and […] for approximately 1 hour and cooled to room temperature. […] Relative Fluorescence Units (RFU) were measured for each response for signal maximum minus minimum during approximately 90 seconds after addition.

[2] = target: T1, hTRPV3; experiment: Whole-cell patch clamp, hTRPV3 Phase 1 / Phase 2 currents; assay type: cell-based
Outline: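 Whole-cell recordings on induced TRPV3 cells replated on coverslips, held at −40 mV with 400 ms ramps from −120 to +100 mV every 5 s; currents read at −80 and +80 mV. Ringer's external solution; current activated by heating to ≥28 °C or 20 μM 2-APB.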

[3] = Aqueous solubility assay in Normal Ringer Solution; conditions: Normal Ringer Solution; for Solubility Ringer (nM): room temperature; for solubility at 40 min: saline or isotonic, kinetic from dmso stock
Description: Following vortex and incubation for a sufficient time (e.g. 40 minutes at room temperature), solutions were filtered, quenched with acetonitrile, and analyzed by Liquid Chromotography. Solubility Limits were determined by comparison to a standard curve.

[4] = target: T1, hTRPV3; experiment: hTRPV3 HAMA IC50 assay (Hamamatsu FDSS6000 calcium flux, TRex-293 cells)
Description: IC50s were calculated using CBIS from ChemInnovation (San Diego).

[5] = Metabolic Stability assay, rat liver microsomes; assay type: in vitro ADME; conditions: read-out: LM T1/2 (min) (rat)
Outline: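 Test article at 1 μM starting concentration incubated with human or rat liver microsomes at 37 °C, with the reaction started by NADPH regeneration components. Aliquots were quenched in cold acetonitrile/MeOH/H2O at 0, 7, 15, 30 and 60 min and analysed by HPLC/MS/MS.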

[6] = Phase 1 current, inward, whole-cell patch clamp, read-out: hTRPV3 Patch P1 Inwd
[7] = Phase 1 current, read-out: hTRPV3 (nM) (Phase 1)
[8] = Phase 2 current, inward, whole-cell patch clamp, read-out: hTRPV3 Patch P2 Inwd
[9] = Phase 2 current, read-out: hTRPV3 (nM) (Phase 2)
[10] = hTRPV3 HAMA IC50 (nM) (30 min), 30 min
[11] = hTRPV3 HAMA IC50 (nM) (5 min), 5 min

T1 sequence (Q8NET8 whole entry): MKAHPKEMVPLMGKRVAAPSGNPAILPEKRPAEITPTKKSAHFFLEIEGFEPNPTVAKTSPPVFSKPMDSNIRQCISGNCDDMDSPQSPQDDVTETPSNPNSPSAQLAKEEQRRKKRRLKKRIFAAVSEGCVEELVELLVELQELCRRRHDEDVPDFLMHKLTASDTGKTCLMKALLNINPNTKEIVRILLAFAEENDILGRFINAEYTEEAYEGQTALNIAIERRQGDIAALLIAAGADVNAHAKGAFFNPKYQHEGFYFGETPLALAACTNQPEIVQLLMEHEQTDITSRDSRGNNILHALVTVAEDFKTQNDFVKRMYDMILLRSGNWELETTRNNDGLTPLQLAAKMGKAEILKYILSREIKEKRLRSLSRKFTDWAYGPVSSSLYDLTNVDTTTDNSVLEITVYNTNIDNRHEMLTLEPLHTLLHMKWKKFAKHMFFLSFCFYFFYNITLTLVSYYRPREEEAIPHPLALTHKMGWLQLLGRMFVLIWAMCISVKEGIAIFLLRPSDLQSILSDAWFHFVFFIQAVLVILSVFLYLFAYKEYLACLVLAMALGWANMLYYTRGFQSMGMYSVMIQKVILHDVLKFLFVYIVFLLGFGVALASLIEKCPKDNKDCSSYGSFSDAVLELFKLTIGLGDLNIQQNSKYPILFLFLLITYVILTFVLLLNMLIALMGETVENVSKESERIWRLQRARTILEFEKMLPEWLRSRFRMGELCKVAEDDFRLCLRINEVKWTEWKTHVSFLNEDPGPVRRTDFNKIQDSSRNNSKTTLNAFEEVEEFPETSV

| SMILES | IC50 ([1]; read-out: FLIPR IC50) [µM] | IC50 [2, 6] [nM] | IC50 [2, 7] [nM] | hTRPV3 HAMA IC50 (nM) (5 min) ([4]; 5 min) | half-life at 1 μM [5] [min] | solubility at 40 min [3] [µM] | other results |
| --- | --- | --- | --- | --- | --- | --- | --- |
| O=C(c1nccnc1O)N1CCC(c2ccc(-c3ccccc3C3CC3)cc2CO)C1 (stereo not drawn) [Compound 2.150] | > 10 |  |  |  |  |  |  |
| O=C(c1cnc(O)cn1)N1CCC(c2ccc(-c3ccccc3C3CC3)cc2CO)C1 (stereo not drawn) [Compound 2-130] |  |  |  |  |  |  | IC50 ([1]; FLIPR IC50 (uM)): 4.8 µM |
| O=C(c1cc(CO)ccn1)N1CCC(c2ccc(-c3ccccc3C3CC3)cc2CO)C1 (stereo not drawn) [Compound 2.154] | 4.21 |  |  |  |  |  |  |
| Cc1nnc(C(=O)N2CCC(c3ccc(-c4ccccc4C4CC4)cc3CO)C2)o1 (stereo not drawn) [Compound 2-129] | > 10 |  |  |  |  |  |  |
| O=C(c1ccc(O)nn1)N1CCC(c2ccc(-c3ccccc3C3CC3)cc2CO)C1 (stereo not drawn) [Compound 2-133] | > 10 |  |  |  |  |  |  |
| CN1CCc2nc(C(=O)N3CCC(c4ccc(-c5ccccc5C5CC5)cc4CO)C3)sc2C1 (stereo not drawn) [Compound 2-165] | > 10 |  |  |  |  |  |  |
| COc1cncc(C(=O)N2CCC(c3ccc(-c4ccccc4C4CC4)cc3CO)C2)n1 (stereo not drawn) [Compound 2.151] | 0.78 |  |  |  |  |  |  |
| O=C(c1cc(O)ccn1)N1CCC(c2ccc(-c3ccccc3C3CC3)cc2CO)C1 (stereo not drawn) [Compound 2-132] | > 10 |  |  |  |  |  |  |
| Cc1ocnc1C(=O)N1CCC(c2ccc(-c3ccccc3C3CC3)cc2CO)C1 (stereo not drawn) [Compound 2.148] | 2.93 |  |  |  |  |  |  |
| OCc1cc(Oc2ccccc2Cl)ccc1N1CC[C@H](Oc2ncccc2Cl)C1 [Compound 1-223, (S)-(5-(2-chlorophenoxy)-2-(3-(3-chloropyridin-2-yloxy)pyrrolidin-1-yl)phenyl)methanol] |  | 10 to 100 | 39.3 | no fit | 17.2 |  | IC50 [2, 8]: 10 to 100 nM; IC50 [2, 9]: 13.3 nM; Solubility Ringer (nM) [3]: BLQ; IC50 [4, 10]: 14600 nM |
| Cc1ccccc1Oc1ccc(N2CC[C@H](Oc3ncccc3Cl)C2)c(CO)c1 [Compound 1-173, (S)-(2-(3-(3-chloropyridin-2-yloxy)pyrrolidin-1-yl)-5-(o-tolyloxy)phenyl)methanol] |  | 10 to 100 | ~29 |  | 27.9 |  | IC50 [2, 8]: 10 to 100 nM; IC50 [2, 9]: 34.7 nM; Solubility Ringer (nM) [3]: BLQ; IC50 [4, 11]: > 20000 nM and 12000 nM; IC50 [4, 10]: 1900 nM |
| OCc1ccc(Oc2ccccc2Cl)cc1N1CC[C@H](Oc2ncccc2Cl)C1 [Compound 1-232, (S)-(4-(2-chlorophenoxy)-2-(3-(3-chloropyridin-2-yloxy)pyrrolidin-1-yl)phenyl)methanol] |  | 10 to 100 | ~72.5 | no fit (5 min) no fit (30 min) | 5.87 | 0.25 (≈ 0.108 µg/mL) | hTRPV3 HAMA IC50 (nM) (30 min) ([4]; 30 min): no fit (5 min) no fit (30 min) |
| NC(=O)c1cc(C(O)c2ccccc2)ccc1N1CC[C@H](Oc2ccc(C(F)(F)F)cn2)C1 (stereo partly drawn) [Compound 1-146, 5-(hydroxy(phenyl)methyl)-2-((S)-3-(5-(trifluoromethyl)pyridin-2-yloxy)pyrrolidin-1-yl)benzamide] |  | 100 to 1000 | 686 |  | 45.8 | > 13.3 | IC50 [4, 11]: 11800 nM |
| NC(=O)c1cc(C(=O)c2ccccc2)ccc1N1CC[C@H](Oc2ccc(C(F)(F)F)cn2)C1 [Compound 1-130, (S)-5-benzoyl-2-(3-(5-(trifluoromethyl)pyridin-2-yloxy)pyrrolidin-1-yl)benzamide] |  | > 1000 | 1540 | no fit (5 min) | 67 | ~12.2 (≈ 5.56 µg/mL) |  |
| OCc1cc(-c2ccccc2)ccc1N1CC[C@H](Oc2ccc(C(F)(F)F)cn2)C1 [Compound 1-115, (S)-(4-(3-(5-(trifluoromethyl)pyridin-2-yloxy)pyrrolidin-1-yl)biphenyl-3-yl)methanol] |  | 10 to 100 | 74.2 |  | 45.8 | 0.37 (≈ 0.153 µg/mL) | IC50 [2, 8]: 10 to 100 nM; IC50 [2, 9]: 59 nM; IC50 [4, 11]: > 20000 nM and 5860 nM |
| COc1ccccc1Oc1ccc(N2CC[C@H](Oc3ncccc3Cl)C2)c(CO)c1 [Compound 1-221, (S)-(2-(3-(3-chloropyridin-2-yloxy)pyrrolidin-1-yl)-5-(2-methoxyphenoxy)phenyl)methanol] |  |  |  | no fit | 12.9 | ~2.9 (≈ 1.24 µg/mL) | IC50 ([2]; hTRPV3 Patch P1 Inwd (nM)): 100 to 1000 nM; IC50 ([2]; read-out: hTRPV3 (nM) (Phase 1)): 159 nM; IC50 [4, 10]: 19400 nM |
| Cc1ccccc1Oc1ccc(CO)c(N2CC[C@H](Oc3ncccc3Cl)C2)c1 [Compound 1-241, (S)-(2-(3-(3-chloropyridin-2-yloxy)pyrrolidin-1-yl)-4-(o-tolyloxy)phenyl)methanol] |  | 10 to 100 | 18.6 | no fit (5 min) no fit (30 min) | 6.19 | ~0.37 (≈ 0.152 µg/mL) | hTRPV3 HAMA IC50 (nM) (30 min) ([4]; 30 min): no fit (5 min) no fit (30 min) |
| NC(=O)c1cc(-c2ccccc2)ccc1N1CC[C@H](Oc2ccc(C(F)(F)F)cn2)C1 [Compound 1-32, (S)-4-(3-(5-(trifluoromethyl)pyridin-2-yloxy)pyrrolidin-1-yl)biphenyl-3-carboxamide] |  | 100 to 1000 | 285 | no fit (5 min) | 44.3 |  | IC50 [2, 8]: 100 to 1000 nM; IC50 [2, 9]: 273 nM; Solubility Ringer (nM) [3]: BLQ |
| COc1ccccc1Oc1ccc(N2CC[C@H](Oc3ncccc3Cl)C2)c(CCO)c1 [Compound 1-237, (S)-2-(2-(3-(3-chloropyridin-2-yloxy)pyrrolidin-1-yl)-5-(2-methoxyphenoxy)phenyl)ethanol] |  | 100 to 1000 | 251 |  | 8.33 | ~1.5 (≈ 0.661 µg/mL) | IC50 [4, 11]: > 20000 nM; IC50 [4, 10]: 19800 nM |
| CCc1ccccc1Oc1ccc(N2CC[C@H](Oc3ncccc3Cl)C2)c(CO)c1 [Compound 1-222, (S)-(2-(3-(3-chloropyridin-2-yloxy)pyrrolidin-1-yl)-5-(2-ethylphenoxy)phenyl)methanol] |  | < 10 | 3.91 | no fit | 18.7 |  | Solubility Ringer (nM) [3]: BLQ; IC50 [4, 10]: 1790 nM |
| OCc1cc(Oc2ccccc2)ccc1N1CC[C@H](Oc2ncccc2Cl)C1 [Compound 1-168, (S)-(2-(3-(3-chloropyridin-2-yloxy)pyrrolidin-1-yl)-5-phenoxyphenyl)methanol] |  | 10 to 100 | 61.2 |  | 26.7 | ~0.5 (≈ 0.198 µg/mL) | IC50 [2, 8]: 10 to 100 nM; IC50 [2, 9]: 90.5 nM; IC50 [4, 11]: > 20000 nM |
| OCCCc1cc(-c2ccccc2)ccc1N1CC[C@H](Oc2ccc(C(F)(F)F)cn2)C1 [Compound 1-138, (S)-3-(4-(3-(5-(trifluoromethyl)pyridin-2-yloxy)pyrrolidin-1-yl)biphenyl-3-yl)propan-1-ol] |  | 100 to 1000 | 275 | no fit (5 min) | 62.4 |  | Solubility Ringer (nM) [3]: BLQ |
| Cc1ccccc1Oc1ccc(N2CC[C@H](Oc3ncccc3Cl)C2)c(CCO)c1 [Compound 1-235, (S)-2-(2-(3-(3-chloropyridin-2-yloxy)pyrrolidin-1-yl)-5-(o-tolyloxy)phenyl)ethanol] |  | 10 to 100 | 19.9 |  | 21.9 |  | Solubility Ringer (nM) [3]: BLQ; IC50 [4, 11]: > 20000 nM; IC50 [4, 10]: 6600 nM |
| OCCOc1cc(-c2ccccc2)ccc1N1CC[C@H](Oc2ccc(C(F)(F)F)cn2)C1 [Compound 1-135, (S)-2-(4-(3-(5-(trifluoromethyl)pyridin-2-yloxy)pyrrolidin-1-yl)biphenyl-3-yloxy)ethanol] |  | 100 to 1000 | 765 | no fit (5 min) | 69.7 | 0.19 (≈ 0.0844 µg/mL) |  |
